Data published in the supplement of paper PMC10307832.

Assays:
Assay in all cases: relative viability (nuclei count vs DMSO), 5 days (fraction); higher = more cells survive
[1] = compound: CNC(=O)c1ccccc1Sc1ccc2c(/C=C/c3ccccn3)n[nH]c2c1 [Axitinib] + Nc1nc2[nH]cc(CCc3ccc(C(=O)N[C@@H](CCC(=O)O)C(=O)O)cc3)c2c(=O)[nH]1 [Pemetrexed] (partner 0.2 µM)
Outline: (§1)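 The day after seeding in 1536-well plates, lung cancer cell lines were treated by pin tool with a single drug, or with a fixed anchor-drug dose together with five library-drug doses (not always all listed) in √10 steps. After 5 days, a combined fix-and-stain solution (final 0.05% Triton X-100, 1% formaldehyde, 1 ug/ml Hoechst) was added. Nuclei counted on 4× images gave relative viability as treated counts over vehicle counts, reported as the median of duplicate plates.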

[2] = compound: Nc1nc(Nc2ccc3c(c2)CC[C@@H](N2CCCC2)CC3)nn1-c1cc2c(nn1)-c1ccccc1CCC2 [Bemcentinib] + CC(C)C[C@H](NC(=O)[C@H](Cc1ccccc1)NC(=O)c1cnccn1)B(O)O [Bortezomib] (partner 0.002 µM)
Outline: as §1

[3] = compound: Nc1nc(Nc2ccc3c(c2)CC[C@@H](N2CCCC2)CC3)nn1-c1cc2c(nn1)-c1ccccc1CCC2 [Bemcentinib] + CS(=O)(=O)CCNCc1ccc(-c2ccc3ncnc(Nc4ccc(OCc5cccc(F)c5)c(Cl)c4)c3c2)o1 [Lapatinib] (partner 2 µM)
Outline: as §1

[4] = compound: Nc1nc(Nc2ccc3c(c2)CC[C@@H](N2CCCC2)CC3)nn1-c1cc2c(nn1)-c1ccccc1CCC2 [Bemcentinib] + Cc1cc(Nc2cc(N3CCN(C)CC3)nc(Sc3ccc(NC(=O)C4CC4)cc3)n2)n[nH]1 [Tozasertib] (partner 0.1 µM)
Outline: as §1

Cell Line	relative viability ([1]; first compound 0.005 µM)	relative viability ([1]; first compound 0.01581 µM)	relative viability ([1]; first compound 0.05 µM)	relative viability ([1]; first compound 0.1581 µM)	relative viability ([1]; first compound 0.5 µM)	relative viability ([2]; first compound 0.1265 µM)	relative viability ([2]; first compound 0.4 µM)	relative viability ([2]; first compound 1.265 µM)	relative viability ([2]; first compound 4 µM)	relative viability ([3]; first compound 0.1265 µM)	relative viability ([3]; first compound 0.4 µM)	relative viability ([3]; first compound 1.265 µM)	relative viability ([3]; first compound 4 µM)	relative viability ([4]; first compound 0.04 µM)	relative viability ([4]; first compound 0.1265 µM)	relative viability ([4]; first compound 0.4 µM)	relative viability ([4]; first compound 1.265 µM)	relative viability ([4]; first compound 4 µM)	relative viability ([2]; first compound 0.04 µM)	relative viability ([3]; first compound 0.04 µM)
A-427	1.11	1.1	1.01	0.954	1.14	0.971	0.871	0.942	0.967	0.959	1.06	1.09	1.03	0.192	0.192	0.197	0.213	0.201	–	–
NCI-H2009	0.997	1.06	1	1.1	1.05	1.05	1.09	1.09	1.19	1.09	0.956	0.954	0.957	0.741	0.785	0.765	0.569	0.677	0.986	0.93
UMC-11	0.774	0.81	0.77	0.867	0.81	0.771	0.724	0.428	0.682	1.16	1.06	0.868	0.975	0.214	0.192	0.2	0.198	0.204	0.413	0.88
NCI-H596	0.517	0.483	0.676	0.533	0.433	1.23	1.08	1.1	1.03	1.13	1.09	1.09	1.09	0.87	1.05	1.14	0.94	0.799	0.897	1.07
LOU-NH91	0.392	0.402	0.406	0.421	0.395	0.503	0.493	0.487	0.407	0.79	0.789	0.742	0.756	0.651	0.639	0.635	0.709	0.63	0.429	0.714
HOP-62	0.378	0.328	0.31	0.41	0.482	0.822	–	0.779	0.736	0.977	–	1.05	0.959	0.379	0.413	0.35	0.39	0.387	0.753	1.17
NCI-H1993	0.606	0.601	0.604	0.628	0.541	1.17	1.14	0.921	1.2	0.757	0.847	0.8	0.885	0.548	0.551	0.592	0.56	0.588	1.12	0.695
